Data published in the NIST ThermoML archive (doi:10.1016/j.tca.2011.10.013).

Assay: mn = molality of the nth substance listed, in mol/kg
Conditions: 101 kPa, Liquid; for speed of sound: Sing-around technique in a fixed-path interferometer; for mass density: Vibrating tube method

O=C[C@H](O)[C@@H](O)[C@H](O)[C@H](O)CO [D-glucose] + O
m1 = 1.13
Conditions | mass density [kg/m3] | speed of sound [m/s]
298.15 K | 1065.07 | 1564.8
303.15 K | 1063.3 | 1574.3
308.15 K | 1061.36 | 1582.4
313.15 K | 1059.24 | 1589.1
318.15 K | 1056.98 | 1594.4
323.15 K | 1054.25 | 1598.5

OC[C@H]1O[C@@](CO)(O[C@H]2O[C@H](CO)[C@@H](O)[C@H](O)[C@H]2O)[C@@H](O)[C@@H]1O [D-sucrose] + O
m1 = 1.274
Conditions | mass density [kg/m3] | speed of sound [m/s]
298.15 K | 1127.37 | 1607.9
303.15 K | 1125.37 | 1615.6
308.15 K | 1123.2 | 1621.9
313.15 K | 1120.73 | 1627
318.15 K | 1118.18 | 1630.8
323.15 K | 1115.44 | 1633.3
